# From EPA's ToxRefDB 2
# Columns and labels:
# dog [1] = conditions: Chronic toxicity; beagle; Oral; Capsule; dose end: 52 week; group: systemic; systemic / in life observation / body weight / body weight + systemic / in life observation / body weight / body weight gain + systemic / …
# rabbit [2] = conditions: Prenatal developmental toxicity study, himalayan, Oral, Gavage/Intubation, dose end: 28 GD
# dog [3] = conditions: Subchronic oral toxicity in nonrodent, beagle, Feed, dose end: 52 week, group: systemic, systemic / clinical chemistry / albumin / albumin + systemic / clinical chemistry / cholesterol / cholesterol + systemic / clinical …
# rat [4] = conditions: Combined chronic toxicity/carcinogenicity; wistar; Oral; Feed; dose end: 104 week; group: systemic; systemic / in life observation / body weight / body weight + systemic / in life observation / body weight / body weight gain + systemic / …
# rat [5] = conditions: Subchronic oral toxicity in rodents, wistar, Feed, dose end: 3 month
# rat [6] = conditions: Multigenerational reproductive toxicity study, wistar (Chbb = THOM-SPF), Oral, Feed, dose end: 1 generation
# mouse = conditions: Subchronic oral toxicity in rodents, b6c3f1, Feed, dose end: 91 day, group: systemic
# rat [7] = conditions: Prenatal developmental toxicity study, wistar, Oral, Gavage/Intubation, dose end: 19 GD
# rat [8] = conditions: Prenatal developmental toxicity study; wistar; Oral; Feed; dose end: 21 GD; group: maternal; systemic / in life observation / food consumption / food consumption + systemic / in life observation / water consumption / water …
# rabbit [9] = conditions: Prenatal developmental toxicity study, new zealand white, Oral, Gavage/Intubation, dose end: 18 GD
# rat [10] = conditions: Prenatal developmental toxicity study, sprague dawley, Oral, Gavage/Intubation, dose end: 15 GD
# rat [11] = conditions: Subchronic dermal toxicity, sprague dawley, Topical, dose end: 13 week, group: systemic, systemic / in life observation / body weight / body weight + systemic / in life observation / food consumption / food consumption + systemic…
# dog [12] = conditions: Chronic toxicity, beagle, Oral, Capsule, dose end: 12 month, group: systemic
# rat [13] = conditions: Subchronic oral toxicity in rodents, wistar, Feed, dose end: 90 day, group: systemic
# [14] = group: developmental, developmental / developmental malformation / bone / absent
# [15] = group: maternal, reproductive / reproductive performance / postimplantation loss / postimplantation loss + reproductive / reproductive performance / …
# [16] = group: maternal, systemic / in life observation / body weight / body weight gain + systemic / in life observation / food consumption / food consumption + …
# [17] = group: cholinesterase, cholinesterase / cholinesterase / cholinesterase / cholinesterase (che)
# [18] = group: systemic, systemic / in life observation / body weight / body weight + systemic / in life observation / body weight / body weight gain + systemic / in…
# [19] = group: offspring, systemic / in life observation / body weight / offspring (pup) weight
# [20] = group: parental, systemic / in life observation / body weight / body weight + systemic / in life observation / body weight / body weight gain + systemic / in…
# [21] = systemic / clinical chemistry / triglycerides / triglycerides + systemic / clinical chemistry / urea nitrogen / urea + systemic / in life …
# [22] = systemic / pathology microscopic / stomach / erosion
# [23] = group: developmental, developmental / developmental malformation / bone / cervical + developmental / developmental malformation / kidney / dilated renal pelvis
# [24] = group: maternal, systemic / in life observation / body weight / body weight + systemic / in life observation / body weight / body weight gain + systemic / in…
# [25] = group: developmental, developmental / developmental malformation / general / [other]
# [26] = group: maternal, reproductive / reproductive performance / postimplantation loss / postimplantation loss + systemic / in life observation / food consumption…
# [27] = group: developmental, developmental / developmental malformation / bone / fused
# [28] = group: developmental, developmental / developmental malformation / bone / fused + developmental / developmental malformation / bone / [other] + developmental / …
# [29] = group: maternal, systemic / in life observation / body weight / body weight gain + systemic / in life observation / clinical signs / salivation + …
# [30] = systemic / in life observation / clinical signs / abnormal gait + systemic / in life observation / clinical signs / ataxia + systemic / in …
# [31] = systemic / in life observation / clinical signs / abnormal gait + systemic / in life observation / clinical signs / convulsions
# [32] = systemic / in life observation / body weight / body weight gain + systemic / in life observation / food consumption / food consumption + …
smiles,measurement,setting,value
CC(C)[C@@H](Nc1ccc(C(F)(F)F)cc1Cl)C(=O)OC(C#N)c1cccc(Oc2ccccc2)c1 (stereo not given in full) [tau-Fluvalinate],LEL,dog [1],12 mg/kg/day
same,LOAEL,dog [1],12 mg/kg/day
same,NEL,dog [1],3 mg/kg/day
same,NOAEL,dog [1],3 mg/kg/day
COC(=O)N(OC)c1ccccc1COc1ccn(-c2ccc(Cl)cc2)n1 [Pyraclostrobin],LEL,rabbit [2]; [14],20 mg/kg/day
same,LOAEL,rabbit [2]; [14],> 20 mg/kg/day
same,NEL,rabbit [2]; [14],10 mg/kg/day
same,NOAEL,rabbit [2]; [14],≥ 20 mg/kg/day
same,LOAEL,rabbit [2]; [15],10 mg/kg/day
same,NOAEL,rabbit [2]; [15],5 mg/kg/day
same,LEL,rabbit [2]; [16],5 mg/kg/day
same,NEL,rabbit [2]; [16],< 5 mg/kg/day
same,LEL,dog [3],10.8 mg/kg/day
same,LOAEL,dog [3],10.8 mg/kg/day
same,NEL,dog [3],5.4 mg/kg/day
same,NOAEL,dog [3],5.4 mg/kg/day
same,LEL,rat [4],9.2 mg/kg/day
same,LOAEL,rat [4],9.2 mg/kg/day
same,NEL,rat [4],3.4 mg/kg/day
same,NOAEL,rat [4],3.4 mg/kg/day
same,LEL,rat [5]; [17],79.7 mg/kg/day
same,LOAEL,rat [5]; [17],> 119 mg/kg/day
same,NEL,rat [5]; [17],40.8 mg/kg/day
same,NOAEL,rat [5]; [17],≥ 119 mg/kg/day
same,LOAEL,rat [5]; [18],34.7 mg/kg/day
same,NEL,rat [5]; [18],3.5 mg/kg/day
same,NOAEL,rat [5]; [18],10.7 mg/kg/day
same,LEL,"rat [5]; group: systemic, systemic / pathology microscopic / spleen / histiocytosis",10.7 mg/kg/day
same,LEL,rat [6]; [19],20.5 mg/kg/day
same,LOAEL,rat [6]; [19],20.5 mg/kg/day
same,NEL,rat [6]; [19],< 20.5 mg/kg/day
same,NOAEL,rat [6]; [19],< 20.5 mg/kg/day
same,LOAEL,"rat [6]; group: parental, systemic / in life observation / body weight / body weight + systemic / in life observation / body weight / body weight gain",39.9 mg/kg/day
same,LEL,rat [6]; [20],39.9 mg/kg/day
same,NEL,rat [6]; [20],20.5 mg/kg/day
same,NOAEL,rat [6]; [20],20.5 mg/kg/day
same,LOAEL,mouse; [21],30.4 mg/kg/day
same,NOAEL,mouse; [21],9.2 mg/kg/day
same,LEL,mouse; [22],12.9 mg/kg/day
same,NEL,mouse; [22],< 12.9 mg/kg/day
same,LEL,rat [7]; [23],50 mg/kg/day
same,LOAEL,rat [7]; [23],50 mg/kg/day
same,NEL,rat [7]; [23],25 mg/kg/day
same,NOAEL,rat [7]; [23],25 mg/kg/day
same,LEL,rat [7]; [24],25 mg/kg/day
same,LOAEL,rat [7]; [24],25 mg/kg/day
same,NEL,rat [7]; [24],10 mg/kg/day
same,NOAEL,rat [7]; [24],10 mg/kg/day
OC[C@H]1O[C@@H]2O[C@H]3[C@H](O)[C@@H](O)[C@@H](O[C@H]4[C@H](O)[C@@H](O)[C@@H](O[C@H]5[C@H](O)[C@@H](O)[C@@H](O[C@H]6[C@H](O)[C@@H](O)[C@@H](O[C@H]7[C@H](O)[C@@H](O)[C@@H](O[C@H]1[C@H](O)[C@H]2O)O[C@@H]7CO)O[C@@H]6CO)O[C@@H]5CO)O[C@@H]4CO)O[C@@H]3CO [alpha-Cyclodextrin],LEL,rat [8],13.2 mg/kg/day
same,LOAEL,rat [8],> 13.2 mg/kg/day
same,NEL,rat [8],6.5 mg/kg/day
same,NOAEL,rat [8],≥ 13.2 mg/kg/day
[O-][n+]1ccccc1[S-].[O-][n+]1ccccc1[S-].[Zn+2] [Zinc pyrithione],LEL,rabbit [9]; [25],3 mg/kg/day
same,LOAEL,rabbit [9]; [25],> 3 mg/kg/day
same,NEL,rabbit [9]; [25],1.5 mg/kg/day
same,NOAEL,rabbit [9]; [25],≥ 3 mg/kg/day
same,LEL,rabbit [9]; [26],1.5 mg/kg/day
same,LOAEL,rabbit [9]; [26],1.5 mg/kg/day
same,NEL,rabbit [9]; [26],0.5 mg/kg/day
same,NOAEL,rabbit [9]; [26],0.5 mg/kg/day
same,LEL,rat [10]; [27],3 mg/kg/day
same,LOAEL,rat [10]; [27],3 mg/kg/day
same,NEL,rat [10]; [28],0.75 mg/kg/day
same,NOAEL,rat [10]; [28],0.75 mg/kg/day
same,LOAEL,"rat [10]; group: maternal, systemic / in life observation / body weight / body weight gain + systemic / in life observation / clinical signs / salivation",3 mg/kg/day
same,LEL,rat [10]; [29],3 mg/kg/day
same,NEL,rat [10]; [29],0.75 mg/kg/day
same,NOAEL,rat [10]; [29],0.75 mg/kg/day
same,LEL,rat [11],1000 mg/kg/day
same,LOAEL,rat [11],1000 mg/kg/day
same,NEL,rat [11],100 mg/kg/day
same,NOAEL,rat [11],100 mg/kg/day
CC1(C)[C@H](/C=C(\Cl)C(F)(F)F)[C@@H]1C(=O)O[C@@H](C#N)c1cccc(Oc2ccccc2)c1 [lambda-Cyhalothrin],NEL,dog [12]; [30],0.1 mg/kg/day
same,NOAEL,dog [12]; [30],0.1 mg/kg/day
same,LEL,dog [12]; [31],0.5 mg/kg/day
same,LOAEL,dog [12]; [31],0.5 mg/kg/day
same,LEL,rat [13]; systemic / clinical chemistry / aminopyrine-n-demethylase / aminopyrine-n-demethylase + systemic / organ weight / liver / absolute,2.5 mg/kg/day
same,LOAEL,rat [13]; [32],12.5 mg/kg/day
same,NEL,rat [13]; [32],0.5 mg/kg/day
same,NOAEL,rat [13]; [32],2.5 mg/kg/day
